Row | SMILES | melting point [°C]
1 | CC(C)(C)OC(=O)n1c(-c2ccc(Br)cc2)cc2ccccc21 [4c, tert-butyl 2-(4-bromophenyl)-1H-indole-1-carboxylate] | 88 to 89
2 | CC(C)(C)OC(=O)n1c(-c2ccc3ccccc3c2)cc2ccccc21 [4l, tert-butyl 2-(naphthalen-2-yl)-1H-indole-1-carboxylate] | 134 to 135
3 | CC(C)(C)OC(=O)n1c(-c2ccccc2)cc2c(Cl)cccc21 [4q, tert-butyl 4-chloro-2-phenyl-1H-indole-1-carboxylate] | 111 to 112
4 | CC(C)(C)OC(=O)n1c(-c2ccccc2)cc2ccc(Cl)cc21 [4v, tert-butyl 6-chloro-2-phenyl-1H-indole-1-carboxylate] | 61 to 62
5 | CC(C)(C)OC(=O)n1c(-c2ccccc2)cc2ccc(Br)cc21 [4w, tert-butyl 6-bromo-2-phenyl-1H-indole-1-carboxylate] | 54 to 55
6 | Cc1ccc2cc(-c3ccccc3)n(C(=O)OC(C)(C)C)c2c1 [4y, tert-butyl 6-methyl-2-phenyl-1H-indole-1-carboxylate] | 62 to 64

Now from value to molecule:

Row | melting point [°C] | SMILES
7 | 110 to 112 | Cc1c(-c2ccccc2)n(C(=O)OC(C)(C)C)c2ccccc12 [4aa, tert-butyl 3-methyl-2-phenyl-1H-indole-1-carboxylate]
8 | 86 to 87 | CC(C)(C)OC(=O)n1c(-c2ccc(Cl)cc2)cc2ccccc21 [4b, tert-butyl 2-(4-chlorophenyl)-1H-indole-1-carboxylate]
9 | 108 to 109 | CC(C)(C)OC(=O)n1c(-c2ccc(C(F)(F)F)cc2)cc2ccccc21 [4e, tert-butyl 2-(4-(trifluoromethyl)phenyl)-1H-indole-1-carboxylate]
10 | 89 to 90 | COc1ccc(-c2cc3ccccc3n2C(=O)OC(C)(C)C)cc1 [4g, tert-butyl 2-(4-methoxyphenyl)-1H-indole-1-carboxylate]
11 | 121 to 122 | CC(C)(C)OC(=O)n1c(-c2ccccc2)cc2c(F)cccc21 [4p, tert-butyl 4-fluoro-2-phenyl-1H-indole-1-carboxylate]
12 | 81 to 82 | COc1cccc2c1cc(-c1ccccc1)n2C(=O)OC(C)(C)C [4r, tert-butyl 4-methoxy-2-phenyl-1H-indole-1-carboxylate]
13 | 104 | CC(C)(C)OC(=O)n1c(-c2ccccc2)cc2ccc(C(F)(F)F)cc21 [4x, tert-butyl 2-phenyl-6-(trifluoromethyl)-1H-indole-1-carboxylate]
14 | 70 to 72 | CC(C)(C)OC(=O)n1c(-c2ccccc2)cc2ccccc21 [compound 4, tert-butyl 2-phenyl-1H-indole-1-carboxylate]

Reference: patent US9527812B2, “N-heterocyclic carbene-catalyzed synthesis of 2-aryl indoles” (Northwestern University, priority 2014, dated 2016)
